This is an account of results in patent publication EP4775582A1, “MACROCYCLIC COMPOUND AND ANTIBODY-DRUG CONJUGATE THEREOF” (Genfleet Therapeutics (Shanghai) Inc., priority 2023, dated 2025).

A short description of series [1]: Solubility experiment (HPLC, external standard). The class given is physicochemical. The following applies: 37 °C, 24 h; for solubility at 24 h: pH 7.4, pH 7.4 medium. How it is done: This experiment was intended to determine the solubility of the compounds in media at different pH values. The materials used in the experiment included: a pH 1.2 medium, a pH 4.5 medium, a pH 7.4 medium, and a diluent (acetonitrile/water = 50/50). 1. The preparation methods for media are as follows:
One centrifuge tube (containing about 2 mg of the test sample) was taken, 1 mL of DMSO was added to completely dissolve the test sample, and the mixture was marked as stock-1. 0.2 mL of stock-1 was transferred into a 10 mL volumetric flask, and then the 50:50 (acetonitrile/water) solution was added to bring the volume to the mark, so as to give a control solution.
Additionally, centrifuge tubes each containing about 1 mg of the test sample were taken, 1 mL of the corresponding medium solution was then added, and the tubes were shaken on a 37 °C water bath shaker for 24 h. After centrifugation for 3 times (centrifugation time: 10 min, rotation speed: 12000 rpm), 0.2 mL of the supernatants were taken, 0.8 mL of the diluent (acetonitrile/water = 50/50) was added to each tube, and the mixtures were vortexed and mixed well to give solubility samples.
The solubility samples described above and the control solution were sequentially analyzed by high performance liquid chromatography. The chromatographic conditions are as follows:
The actual concentration of the compound in each solubility sample was calculated according to an external standard method. Concentration (μg/mL) = (ASample × CControl × DSample)/(AControl)∗1000; [formula] Asample: the peak area of the target peak in the sample solution; Ccontrol: the concentration (mg/mL) of the control solution; Dsample: the dilution factor of the sample solution; Acontrol: the peak area of the target peak in the control solution.

The target in series [2] is KRAS WT-cRAF (Homo sapiens, UniProt P01116+P62937). Put plainly: Assay for binding of KRAS to cRAF (HTRF, with Cyclophilin A), KRAS WT. The following applies: for IC50: KRAS WT-cRAF binding assay(nM), GPPNP-KRAS WT, IC50 values. (In general: TR-FRET usually uses a lanthanide donor and a delayed reading to cut background.)
KRAS WT-cRAF, sequence (P01116 1-188 isoform P01116-2): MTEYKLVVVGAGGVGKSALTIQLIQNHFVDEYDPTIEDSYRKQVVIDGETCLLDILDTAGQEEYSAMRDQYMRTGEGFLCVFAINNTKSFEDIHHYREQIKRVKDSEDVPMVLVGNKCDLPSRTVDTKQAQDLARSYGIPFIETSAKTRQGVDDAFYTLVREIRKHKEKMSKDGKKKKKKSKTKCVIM
KRAS WT-cRAF, sequence (P62937 whole entry): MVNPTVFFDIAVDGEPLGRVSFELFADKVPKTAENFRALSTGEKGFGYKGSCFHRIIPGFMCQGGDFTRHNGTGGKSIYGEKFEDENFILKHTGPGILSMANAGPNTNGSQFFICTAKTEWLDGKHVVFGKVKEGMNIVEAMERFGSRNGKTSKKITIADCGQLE
Description: (§3) The plate was centrifuged at 1000 rpm for 1 min and then incubated in the thermostatic incubator at 20 °C for 30 min. […] The plate was centrifuged at 1000 rpm for 1 min and then incubated in the thermostatic incubator at 20 °C for 60 min. […] The working solution was added to the aforementioned assay plate at 5 µL/well. The plate was centrifuged at 1000 rpm for 1 min and then incubated in the thermostatic incubator at 20 °C for 60 min.
Series [3] deals with KRAS G12V-cRAF (Homo sapiens, UniProt P01116+P62937, G12V). Put plainly: Assay for binding of KRAS to cRAF (HTRF, with Cyclophilin A), KRAS G12V. The following applies: for IC50: KRAS G12V-cRAF binding assay(nM), GPPNP-KRAS G12V, IC50 values.
KRAS G12V-cRAF, sequence (P01116 1-188 isoform P01116-2 G12V): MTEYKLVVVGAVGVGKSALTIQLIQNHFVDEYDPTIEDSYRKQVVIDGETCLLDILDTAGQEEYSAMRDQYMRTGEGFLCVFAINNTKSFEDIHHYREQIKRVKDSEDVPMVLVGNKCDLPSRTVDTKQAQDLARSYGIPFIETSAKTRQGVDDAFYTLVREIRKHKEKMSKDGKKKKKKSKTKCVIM
KRAS G12V-cRAF, sequence (P62937 whole entry): as the sequence (P62937 whole entry) above
Description: as §3
In series [4] the test system is AsPC-1 p-ERK. Put plainly: Cell p-ERK assay (HTRF), AsPC-1 cells. The series is classed as cell-based, human. The conditions noted are these: Homo sapiens; for pIC50: ASPC1, AsPC-1 cells (KRAS G12D), 3 h incubation, read-out: AsPC-1 p-ERK IC50; for IC50: ASPC1, 3 h, read-out: AsPC-1 p-ERK IC50(nM). A digest of the protocol: (§1)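 Phospho-ERK (T202/Y204) was measured by HTRF in lysates after 3 h compound treatment at 37 °C. Cells had been plated the previous day at 20000 per well for NCI-H441 and 10000 per well for AsPC-1. Four-parameter dose-response fitting of % inhibition gave IC50 values.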

For series [5], the system named is AsPC-1 cells. As to the kind of experiment: 3D cell proliferation assay (CellTiter Glo-3D), AsPC-1. The class given is cell-based, human. The following applies: Homo sapiens, ASPC1, 120 h; for pIC50: AsPC-1 cells (KRAS G12D), 3D, 2% FBS, 5 days, read-out: AsPC-1 AP IC50. A digest of the protocol: (§2)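 IC50 values come from four-parameter fits of inhibition rate against log compound concentration, using CellTiter-Glo luminescence read after 5 days' exposure. AsPC-1 and NCI-H441 were plated at 800 cells per well in low-serum (2% FBS) medium. Compound was dosed the day after seeding, with incubation at 37 °C, 5% CO2.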
Background: In ATP-based viability assays light output follows the ATP content of the culture.

In series [6] the test system is NCI-H441 cells. Put plainly: 3D cell proliferation assay (CellTiter Glo-3D), NCI-H441. The class given is cell-based, human. The conditions noted are these: Homo sapiens, 120 h, NCI-H441 cells (KRAS G12V), 2% FBS, 5 days, read-out: H441 AP IC50. A digest of the protocol: as §2
Series [7] deals with H441 p-ERK. Put plainly: Cell p-ERK assay (HTRF), NCI-H441 cells. The class given is cell-based, human. The conditions noted are these: Homo sapiens; NCI-H441 cells (KRAS G12V), 3 h incubation. In short, it runs like this: as §1

pIC50: −log10 of the molar value. In brackets after ≈: the same amount, converted by molar mass. Read-outs that look alike come from different tables or passages of the source.

The solubility is the concentration that dissolves in the medium under given conditions. Read a high solubility as much dissolved substance. What is called IC50 is the midpoint of a concentration-inhibition curve. `CCn1c(-c2cc(C#CCN3CCS(=O)(=O)CC3)cnc2C(C)OC)c2c3cc(ccc31)-c1csc(n1)CC(NC(=O)C1C3CNCC31)C(=O)N1CCCC(N1)C(=O)OCC(C)(C)C2` (atropisomer, axis not shown; (Ra)) [Compound Z18, (1R,5S,6r)-N-((6^3S,4S,Z)-(Ra)-1^2-(5-(3-(1,1-dioxidothiomorpholino)prop-1-yn-1-yl)-2-((S)-1-methoxyethyl)pyridin-3-yl)-1^1-ethyl-10,10-dimethyl-5,7-dioxo-6^1,6^2,6^3,6^4,6^5,6^6-hexahydro-1^1H-8-oxa-2(4,2)-thiazola-1(5,3)-indola-6(1,3)-pyridazinacycloundecaphane-4-yl)-3-azabicyclo[3.1.0]hexane-6-carboxamide] gave a solubility at 24 h in series [1] (pH 7.4 medium) of 22.4 µg/mL (≈ 24.6 µM). For the same molecule, the IC50 in series [2] is 31 nM; in series [3] it was 16.5 nM.
In the case of `COCCn1c(-c2cc(C#CCN3CCN(C(=O)CO)CC3)c[n+]([O-])c2C(C)OC)c2c3cc(ccc31)-c1csc(n1)CC(NC(=O)C1C3COCC31)C(=O)N1CCCC(N1)C(=O)OCC(C)(C)C2` (atropisomer, axis not shown; (Ra)) [Compound Z38-1, (Ra)-3-((6^3S,4S,Z)-4-((1R,5S,6r)-3-oxabicyclo[3.1.0]hexane-6-carboxamido)-1^1-(2-methoxyethyl)-10,10-dimethyl-5,7-dioxo-6^1,6^2,6^3,6^4,6^5,6^6-hexahydro-1^1H-8-oxa-2(4,2)-thiazola-1(5,3)-indola-6(1,3)-pyridazinacycloundecaphane-1^2-yl)-5-(3-(4-(2-hydroxyacetyl)piperazin-1-yl)prop-1-yn-1-yl)-2-((S)-1-methoxyethyl)pyridine-1-oxide], the solubility at 24 h in series [1] (pH 7.4 medium) is 97 µg/mL (≈ 100 µM). For the same molecule, the IC50 stood at 69.6 nM in series [2] and 37.7 nM in series [3].
One may read the pIC50 as the IC50 on a negative log10 scale, so that one unit is a factor of ten. Consider `CCn1c(-c2cc(C#CCN3CCC(C#N)(CO)CC3)c[n+]([O-])c2[C@H](C)OC)c2c3cc(ccc31)-c1csc(n1)C[C@H](NC(=O)[C@H]1[C@H](C)[C@@H]1C)C(=O)N1CCC[C@H](N1)C(=O)OCC(C)(C)C2` (atropisomer, axis not shown; (Ra)) [Compound Z45-1, 5-(3-(4-cyano-4-(hydroxymethyl)piperidin-1-yl)prop-1-yn-1-yl)-(Ra)-3-((6^3S,4S,Z)-4-((1r,2R,3S)-2,3-dimethylcyclopropane-1-carboxamido)-1^1-ethyl-10,10-dimethyl-5,7-dioxo-6^1,6^2,6^3,6^4,6^5,6^6-hexahydro-1^1H-8-oxa-2(4,2)-thiazola-1(5,3)-indola-6(1,3)-pyridazinacycloundecaphane-1^2-yl)-2-((S)-1-methoxyethyl)pyridine 1-oxide], for which the pIC50 in series [4] is 9.55; in series [5], 9.92; in series [6], 9.28; in series [7] it was 9.22. Further, the solubility at 24 h in series [1] (ph 7.4 medium) is 5.01 µg/mL (≈ 5.45 µM).
In general, Solubility refers to how much of the substance goes into solution per volume. Low values mean a poorly soluble substance, high ones a readily soluble substance. With `COCCn1c(-c2cc(C#CCN3CCN(C(=O)CO)CC3)cnc2[C@H](C)OC)c2c3cc(ccc31)-c1csc(n1)C[C@H](NC(=O)[C@H]1[C@H](C)[C@@H]1C)C(=O)N1CCC[C@H](N1)C(=O)OCC(C)(C)C2` (atropisomer, axis not shown; (Ra)) [Compound Z63-1, (2R,3S)-N-((6^3S,4S,Z)-1^2-(5-(3-(4-(2-hydroxyacetyl)piperazin-1-yl)prop-1-yn-1-yl)-(Ra)-2-((S)-1-methoxyethyl)pyridin-3-yl)-1'-(2-methoxyethyl)-10,10-dimethyl-5,7-dioxo-6^1,6^2,6^3,6^4,6^5,6^6-hexahydro-1^1H-8-oxa-2(4,2)-thiazola-1(5,3)-indola-6(1,3)-pyridazinacycloundecaphane-4-yl)-2,3-dimethylcyclopropane-1-carboxamide], the IC50 worked out at 0.61 nM in series [4] and 0.36 nM in series [5] (read-out: AsPC-1 AP IC50(nM)). In addition, in series [1] (pH 7.4 medium, 1440 min), the “Solubility at pH 7.4 (µg/mL)” value turned out to be 7.53 µg/mL. In addition, the pIC50 in series [6] is 9.49; in series [7], 9.26.
As for `CCn1c(-c2cc(C#CCN3CCS(=O)(=O)CC3)cnc2C(C)NC)c2c3cc(ccc31)-c1csc(n1)CC(NC(=O)C1C(C)C1C)C(=O)N1CCCC(N1)C(=O)OCC(C)(C)C2` (atropisomer, axis not shown; (Ra)) [Compound Z67, (1r,2R,3S)-N-((6^3S,4S,Z)-(Ra)-1^2-(5-(3-(1,1-dioxidothiomorpholino)prop-1-yn-1-yl)-2-((R)-1-(methylamino)ethyl)pyridin-3-yl)-1-ethyl-10,10-dimethyl-5,7-dioxo-6^1,6^2,6^3,6^4,6^5,6^6-hexahydro-1^1H-8-oxa-2(4,2)-thiazola-1(5,3)-indola-6(1,3)-pyridazinacycloundecaphane-4-yl)-2,3-dimethylcyclopropane-1-carboxamide], the figures for the pIC50 in series [4] and in series [7] were 7.98 and 8.09, respectively. In series [1] (pH 7.4 medium), this molecule yielded a solubility at 24 h of 101 µg/mL (≈ 113 µM). Besides, the IC50 in series [2] came out at 62 nM; in series [3], 8.7 nM.
With `CCn1c(-c2cc(OCCN3CCC(C#N)(CN)CC3)c[n+]([O-])c2[C@H](C)OC)c2c3cc(ccc31)-c1csc(n1)C[C@H](NC(=O)[C@H]1[C@H](C)[C@@H]1C)C(=O)N1CCC[C@H](N1)C(=O)OCC(C)(C)C2` (atropisomer, axis not shown; (Ra)) [Compound Z73, 5-(2-(4-(aminomethyl)-4-cyanopiperidin-1-yl)ethoxy)-(Ra)-3-((6^3S,4S,Z)-4-((1r,2R,3S)-2,3-dimethylcyclopropane-1-carboxamido)-1^1-ethyl-10,10-dimethyl-5,7-dioxo-6^1,6^2,6^3,6^4,6^5,6^6-hexahydro-1^1H-8-oxa-2(4,2)-thiazola-1(5,3)-indola-6(1,3)-pyridazinacycloundecaphane-1^2-yl)-2-((S)-1-methoxyethyl)pyridine 1-oxide], the pIC50 in series [4] was 8.50; in series [5] it was 8.60; in series [6], 8.61; in series [7] it was 8.42. In series [1] (ph 7.4 medium), this molecule registered a solubility at 24 h of 96.6 µg/mL (≈ 104 µM).
Regarding `CCn1c(-c2cc(C#CCN3CCN(C(=O)CN)CC3)cnc2[C@H](C)OC)c2c3cc(ccc31)-c1coc(n1)C[C@H](NC(=O)[C@H]1[C@@H]3COC[C@@H]31)C(=O)N1CCC[C@H](N1)C(=O)OCC(C)(C)C2` (atropisomer, axis not shown; (Ra)) [Compound Z167, (1R,5S,6r)-N-((6^3S,4S,Z)-1^2-(5-(3-(4-glycylpiperazin-1-yl)prop-1-yn-1-yl)-(Ra)-2-((S)-1-methoxyethyl)pyridin-3-yl)-1^1-ethyl-10,10-dimethyl-5,7-dioxo-6^1,6^2,6^3,6^4,6^5,6^6-hexahydro-1^1H-8-oxa-2(4,2)-oxazola-1(5,3)-indola-6(1,3)-pyridazinacycloundecaphane-4-yl)-3-oxabicyclo[3.1.0]hexane-6-carboxamide], in series [4], the IC50 is 1.64 nM. The molecule further showed a solubility at 24 h in series [1] (ph 7.4 medium) of 363 µg/mL (≈ 401 µM). In addition, the pIC50 is 7.39 in series [2] (read-out: KRAS WT-cRAF binding assay, GPPNP-KRAS WT, IC50 values); 7.86 in series [3] (read-out: KRAS G12V-cRAF binding assay, GPPNP-KRAS G12V, IC50 values); 8.90 in series [7].
